Results reported in US20260297060A1, “COMPOUNDS FOR THE DEGRADATION OF MUTANT BRAF” (C4 THERAPEUTICS, INC., priority 2023, published 2026).
Read-outs that look alike come from different tables or passages of the source.

Legend:
BRAF V600E = target: T1, BRAF V600E (Homo sapiens, UniProt P15056+Q96SW2, V600E); test: BRAF V600E HiBiT Degradation Assay; format: cell-based; settings: for Emax: read-out: HiBiT-Degradation A375.10 BRAF 2 hours Emax
T1 construct: knock-in of the HiBiT tag to the endogenous BRAF V600E locus; host or cells: A375.10 (A375 clonal line, CRISPR HiBiT knock-in at the endogenous BRAF V600E locus)
Summary of the method: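 Endogenous HiBiT knock-in on BRAF V600E in A375 cells (clone A375.10); 11-point half-log series, top 10 μM, 2, 6 or 24 h at 37° C. Lytic HiBiT luminescence, background-subtracted, normalized to DMSO; 4-parameter fit gives DC50, Emax (residual protein) and IP (inflection point).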

A375-NRAS^Q61K cells = test: CTGlo Cell Viability Assay, A375-NRAS^Q61K (A375.11) cells, 96 hours; format: cell-based, human; settings: A375.11 (A375-NRAS^Q61K) cells; for Emax / CTGlo A375.11 96 hours Emax: lowest % viability achieved
Summary of the method: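 Viability as CellTiter-Glo ATP luminescence after 96 h compound exposure at 37 °C; A375.11 (BRAF V600E/NRAS Q61K) cells at 250/well, top final concentration 10 μM in half-log steps. Signal was background-corrected and set relative to DMSO controls. A 4-parameter logistic fit gave GI50 (50% crossing) and Emax.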

[1] = A375.10 cells, BRAF V600E, 2 hours, inflection point, read-out: HiBiT-Degradation A375.10 BRAF 2 hours IP
[2] = A375.10 cells, BRAF V600E, 2 hours, read-out: HiBiT-Degradation A375.10 BRAF 2 hours DC50
[3] = A375.10 cells, BRAF V600E, 2 hours, residual protein remaining

T1 sequence (P15056 whole entry V600E): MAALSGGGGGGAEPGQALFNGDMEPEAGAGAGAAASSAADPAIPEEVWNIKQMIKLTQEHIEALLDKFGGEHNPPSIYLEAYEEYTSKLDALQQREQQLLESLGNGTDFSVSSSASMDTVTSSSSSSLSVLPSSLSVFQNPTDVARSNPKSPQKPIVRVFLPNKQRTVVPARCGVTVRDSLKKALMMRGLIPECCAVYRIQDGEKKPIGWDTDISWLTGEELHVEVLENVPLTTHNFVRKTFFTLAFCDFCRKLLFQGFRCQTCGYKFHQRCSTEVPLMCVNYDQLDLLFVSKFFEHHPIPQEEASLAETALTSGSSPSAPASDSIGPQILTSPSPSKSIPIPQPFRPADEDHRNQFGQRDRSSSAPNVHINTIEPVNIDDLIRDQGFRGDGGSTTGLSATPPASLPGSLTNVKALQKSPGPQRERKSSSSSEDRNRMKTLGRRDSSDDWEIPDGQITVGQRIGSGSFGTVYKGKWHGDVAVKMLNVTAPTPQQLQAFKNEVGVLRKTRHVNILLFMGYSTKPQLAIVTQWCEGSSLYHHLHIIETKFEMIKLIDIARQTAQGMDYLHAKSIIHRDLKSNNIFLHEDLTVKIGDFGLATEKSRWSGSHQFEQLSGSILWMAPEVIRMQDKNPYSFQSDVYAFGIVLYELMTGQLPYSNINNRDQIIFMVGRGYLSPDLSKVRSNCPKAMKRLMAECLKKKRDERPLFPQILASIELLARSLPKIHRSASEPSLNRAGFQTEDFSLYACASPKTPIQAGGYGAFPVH
T1 sequence (Q96SW2 whole entry): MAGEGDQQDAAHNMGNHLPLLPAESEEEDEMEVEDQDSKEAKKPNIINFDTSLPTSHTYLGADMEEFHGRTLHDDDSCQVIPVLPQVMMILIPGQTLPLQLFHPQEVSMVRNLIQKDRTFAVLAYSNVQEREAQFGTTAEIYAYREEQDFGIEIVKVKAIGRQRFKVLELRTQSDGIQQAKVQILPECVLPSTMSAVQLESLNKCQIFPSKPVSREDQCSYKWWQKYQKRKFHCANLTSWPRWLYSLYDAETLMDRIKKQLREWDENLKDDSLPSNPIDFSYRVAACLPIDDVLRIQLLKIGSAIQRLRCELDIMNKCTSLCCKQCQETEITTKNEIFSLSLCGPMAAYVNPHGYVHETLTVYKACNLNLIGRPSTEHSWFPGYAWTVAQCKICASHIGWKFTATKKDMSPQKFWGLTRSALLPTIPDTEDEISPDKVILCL
T1 sequence (Q16531 whole entry partner): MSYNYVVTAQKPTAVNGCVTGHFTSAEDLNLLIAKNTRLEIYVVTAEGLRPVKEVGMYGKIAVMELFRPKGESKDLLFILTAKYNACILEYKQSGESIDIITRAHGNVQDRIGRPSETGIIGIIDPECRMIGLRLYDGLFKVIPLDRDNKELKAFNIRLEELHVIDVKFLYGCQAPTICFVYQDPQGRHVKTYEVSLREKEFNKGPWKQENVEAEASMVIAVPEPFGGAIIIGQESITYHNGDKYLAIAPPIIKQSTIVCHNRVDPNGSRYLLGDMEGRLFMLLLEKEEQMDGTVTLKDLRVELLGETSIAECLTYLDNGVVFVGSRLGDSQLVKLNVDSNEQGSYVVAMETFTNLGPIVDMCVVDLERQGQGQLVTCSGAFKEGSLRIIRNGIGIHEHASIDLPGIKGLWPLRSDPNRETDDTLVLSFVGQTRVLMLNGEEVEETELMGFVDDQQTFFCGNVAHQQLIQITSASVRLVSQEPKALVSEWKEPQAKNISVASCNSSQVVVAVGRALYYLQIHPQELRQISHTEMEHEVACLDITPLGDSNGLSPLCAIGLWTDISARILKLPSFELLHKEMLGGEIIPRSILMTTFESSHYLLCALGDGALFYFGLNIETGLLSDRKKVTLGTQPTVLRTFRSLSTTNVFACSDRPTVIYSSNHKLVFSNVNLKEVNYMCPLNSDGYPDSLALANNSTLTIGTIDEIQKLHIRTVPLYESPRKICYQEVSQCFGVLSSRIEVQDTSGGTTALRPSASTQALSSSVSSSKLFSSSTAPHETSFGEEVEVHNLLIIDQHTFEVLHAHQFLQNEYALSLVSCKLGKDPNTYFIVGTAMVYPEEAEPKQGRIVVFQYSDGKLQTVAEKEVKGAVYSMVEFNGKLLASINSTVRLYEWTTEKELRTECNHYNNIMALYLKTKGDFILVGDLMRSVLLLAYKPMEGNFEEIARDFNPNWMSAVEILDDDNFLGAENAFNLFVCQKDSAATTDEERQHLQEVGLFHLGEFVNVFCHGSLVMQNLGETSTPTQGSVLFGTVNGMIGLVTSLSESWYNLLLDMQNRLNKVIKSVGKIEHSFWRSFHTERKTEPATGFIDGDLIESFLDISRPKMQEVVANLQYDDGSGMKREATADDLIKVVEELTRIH

Structure (SMILES)	DC50 (BRAF V600E; [1])	DC50 (BRAF V600E; [2])	Emax (BRAF V600E; [3])	GI50 (A375-NRAS^Q61K cells)	HiBiT-Degradation A375.10 BRAF 2 hours Emax (BRAF V600E; [3])	HiBiT-Degradation A375.10 BRAF 2 hours Emax (BRAF V600E)	DC50 (BRAF V600E; A375.10 cells, BRAF V600E, 6 hours, inflection point, read-out: HiBiT-Degradation A375.10 BRAF 6 hours IP)	DC50 (BRAF V600E; A375.10 cells, BRAF V600E, 6 hours, read-out: HiBiT-Degradation A375.10 BRAF 6 hours DC50)	HiBiT-Degradation A375.10 BRAF 6 hours Emax (BRAF V600E; A375.10 cells, BRAF V600E, 6 hours, residual protein remaining)	HiBiT-Degradation A375.10 BRAF 24 hours Emax (BRAF V600E; A375.10 cells, HiBiT, BRAF V600E, 24 hours)	DC50 (BRAF V600E; A375.10 cells, HiBiT, BRAF V600E, 24 hours, read-out: HiBiT-Degradation A375.10 BRAF 24 hours DC50)	DC50 (BRAF V600E; A375.10 cells, HiBiT, BRAF V600E, 24 hours, read-out: HiBiT-Degradation A375.10 BRAF 24 hours IP)	GI50 (A375-NRAS^Q61K cells; Homo sapiens, 96 h)	Emax (A375-NRAS^Q61K cells; Homo sapiens, 96 h)	CTGlo A375.11 96 hours Emax (A375-NRAS^Q61K cells)
CCN(C)S(=O)(=O)Nc1ccc(F)c(Oc2ccc3ncc(CCC4CCN(C5CCC(c6ccc(NC7CCC(=O)NC7=O)cc6F)CC5)CC4)nc3c2)c1C#N (single isomer, unassigned) [Compound 132, 7-[2-cyano-3-[[ethyl(methyl)sulfamoyl]amino]-6-fluoro-phenoxy]-2-[2-[1-[4-[4-[(2,6-dioxo-3-piperidyl)amino]-2-fluoro-phenyl]cyclohexyl]-4-piperidyl]ethyl]quinoxaline]	< 1000 nM	< 1000 nM		< 1000 nM	*** (<=50%)										** (<90% and >50%)
N#Cc1c(NS(=O)(=O)C2CCCC2)ccc(F)c1Oc1ccc2ncn([C@H]3COC4(CCN(C5CCC(c6ccc(NC7CCC(=O)NC7=O)cc6F)CC5)CC4)C3)c(=O)c2c1 (single isomer, unassigned) [Compound 136]	< 1000 nM	< 1000 nM	< 50%										< 1000 nM	< 50%	
CCN(C)S(=O)(=O)Nc1ccc(F)c(Oc2ccc3ncn(CCC4CCN(C5CCC(c6cc7c(cc6F)c(N6CCC(=O)NC6=O)nn7C)CC5)CC4)c(=O)c3c2)c1C#N (single isomer, unassigned) [Compound 137, 6-[2-cyano-3-[[ethyl(methyl)sulfamoyl]amino]-6-fluoro-phenoxy]-3-[2-[1-[4-[3-(2,4-dioxohexahydropyrimidin-1-yl)-5-fluoro-1-methyl-indazol-6-yl]cyclohexyl]-4-piperidyl]ethyl]-4-oxo-quinazoline]	< 1000 nM	< 1000 nM	50 to 90%										1000 to 10000 nM	50 to 90%	
CCN(C)S(=O)(=O)Nc1ccc(F)c(Oc2ccc3ncn(CCC4CCN(C5CCC(c6cc7c(cc6F)c(N6CCC(=O)NC6=O)nn7C)CC5)CC4)c(=O)c3c2)c1C#N (single isomer, unassigned) [Compound 138, 6-[2-cyano-3-[[ethyl(methyl)sulfamoyl]amino]-6-fluoro-phenoxy]-3-[2-[1-[4-[3-(2,4-dioxohexahydropyrimidin-1-yl)-5-fluoro-1-methyl-indazol-6-yl]cyclohexyl]-4-piperidyl]ethyl]-4-oxo-quinazoline]	< 1000 nM	1000 to 10000 nM		1000 to 10000 nM	** (<90% and >50%)										** (<90% and >50%)
CO[C@H]1CCN(S(=O)(=O)Nc2ccc(F)c(Oc3ccc4ncn([C@H]5COC6(CCN(C7CCC(c8ccc(NC9CCC(=O)NC9=O)cc8F)CC7)CC6)C5)c(=O)c4c3)c2C#N)C1 (single isomer, unassigned) [Compound 140]	< 1000 nM	< 1000 nM	< 50%										< 1000 nM	< 50%	
N#Cc1c(NS(=O)(=O)N2CC[C@@H](F)C2)ccc(F)c1Oc1ccc2ncn(C3COC4(CCN(C5CCC(c6ccc(NC7CCC(=O)NC7=O)cc6F)CC5)CC4)C3)c(=O)c2c1 (single isomer, unassigned) [Compound 143]	< 1000 nM	< 1000 nM	< 50%										< 1000 nM	< 50%	

More lines, main results first:

DC50 (BRAF V600E; [1])	DC50 (BRAF V600E; [2])	Emax (BRAF V600E; [3])	GI50 (A375-NRAS^Q61K cells)	HiBiT-Degradation A375.10 BRAF 2 hours Emax (BRAF V600E; [3])	HiBiT-Degradation A375.10 BRAF 2 hours Emax (BRAF V600E)	DC50 (BRAF V600E; A375.10 cells, BRAF V600E, 6 hours, inflection point, read-out: HiBiT-Degradation A375.10 BRAF 6 hours IP)	DC50 (BRAF V600E; A375.10 cells, BRAF V600E, 6 hours, read-out: HiBiT-Degradation A375.10 BRAF 6 hours DC50)	HiBiT-Degradation A375.10 BRAF 6 hours Emax (BRAF V600E; A375.10 cells, BRAF V600E, 6 hours, residual protein remaining)	HiBiT-Degradation A375.10 BRAF 24 hours Emax (BRAF V600E; A375.10 cells, HiBiT, BRAF V600E, 24 hours)	DC50 (BRAF V600E; A375.10 cells, HiBiT, BRAF V600E, 24 hours, read-out: HiBiT-Degradation A375.10 BRAF 24 hours DC50)	DC50 (BRAF V600E; A375.10 cells, HiBiT, BRAF V600E, 24 hours, read-out: HiBiT-Degradation A375.10 BRAF 24 hours IP)	GI50 (A375-NRAS^Q61K cells; Homo sapiens, 96 h)	Structure (SMILES)	Emax (A375-NRAS^Q61K cells; Homo sapiens, 96 h)	CTGlo A375.11 96 hours Emax (A375-NRAS^Q61K cells)
< 1000 nM	1000 to 10000 nM	50 to 90%	> 10000 nM										CCN(C)S(=O)(=O)Nc1ccc(F)c(Oc2ccc3ncc(OCC4CCN(C5CCC(c6ccc(NC7CCC(=O)NC7=O)cc6F)CC5)CC4)nc3c2)c1C#N (single isomer, unassigned) [Compound 116, 7-[2-cyano-3-[[ethyl(methyl)sulfamoyl]amino]-6-fluoro-phenoxy]-2-[[1-[4-[4-[(2,6-dioxo-3-piperidyl)amino]-2-fluoro-phenyl]cyclohexyl]-4-piperidyl]methoxy]quinoxaline]	50 to 90%	
< 1000 nM	< 1000 nM		< 1000 nM	*** (<=50%)									CCN(C)S(=O)(=O)Nc1ccc(F)c(Oc2ccc3ncc(OCC4CCN(C5CCC(c6ccc(NC7CCC(=O)NC7=O)cc6F)CC5)CC4)nc3c2)c1C#N (single isomer, unassigned) [Compound 117, 7-[2-cyano-3-[[ethyl(methyl)sulfamoyl]amino]-6-fluoro-phenoxy]-2-[[1-[4-[4-[(2,6-dioxo-3-piperidyl)amino]-2-fluoro-phenyl]cyclohexyl]-4-piperidyl]methoxy]quinoxaline]		** (<90% and >50%)
< 1000 nM	< 1000 nM		1000 to 10000 nM		** (<90% and >50%)								CCN(C)S(=O)(=O)Nc1ccc(F)c(Oc2ccc3ncc(OCC4CCN(C5CCC(c6cc7c(cc6F)c(N6CCC(=O)NC6=O)nn7C)CC5)CC4)nc3c2)c1C#N (single isomer, unassigned) [Compound 119, 7-[2-cyano-3-[[ethyl(methyl)sulfamoyl]amino]-6-fluoro-phenoxy]-2-[[1-[4-[3-(2,4-dioxohexahydropyrimidin-1-yl)-5-fluoro-1-methyl-indazol-6-yl]cyclohexyl]-4-piperidyl]methoxy]quinoxaline]		** (<90% and >50%)
< 1000 nM	< 1000 nM		< 1000 nM	*** (<=50%)		< 1000 nM	< 1000 nM	*** (<=50%)	*** (<=50%)	< 1000 nM	< 1000 nM		Cn1nc(N2CCC(=O)NC2=O)c2cc(F)c(C3CCC(N4CCC5(CC4)CC(n4cnc6ccc(Oc7c(F)ccc(NS(=O)(=O)N8CC[C@@H](F)C8)c7C#N)cc6c4=O)C5)CC3)cc21 (single isomer, unassigned) [Compound 123]		*** (<=50%)
< 1000 nM	1000 to 10000 nM	< 50%										> 10000 nM	CCN(C)S(=O)(=O)Nc1ccc(F)c(Oc2ccc3ncc(OC4CCN(C5CCC(c6cc7c(cc6F)c(N6CCC(=O)NC6=O)nn7C)CC5)CC4)nc3c2)c1C#N (single isomer, unassigned) [Compound 124, 7-[2-cyano-3-[[ethyl(methyl)sulfamoyl]amino]-6-fluoro-phenoxy]-2-[[1-[4-[3-(2,4-dioxohexahydropyrimidin-1-yl)-5-fluoro-1-methyl-indazol-6-yl]cyclohexyl]-4-piperidyl]oxy]quinoxaline]	50 to 90%	
< 1000 nM	> 10000 nM	50 to 90%	> 10000 nM										CCN(C)S(=O)(=O)Nc1ccc(F)c(Oc2ccc3ncc(CCC4CCN(C5CCC(c6cc7c(cc6F)c(N6CCC(=O)NC6=O)nn7C)CC5)CC4)nc3c2)c1C#N (single isomer, unassigned) [Compound 128, 7-[2-cyano-3-[[ethyl(methyl)sulfamoyl]amino]-6-fluoro-phenoxy]-2-[2-[1-[4-[3-(2,4-dioxohexahydropyrimidin-1-yl)-5-fluoro-1-methyl-indazol-6-yl]cyclohexyl]-4-piperidyl]ethyl]quinoxaline]	50 to 90%	
< 1000 nM	< 1000 nM		1000 to 10000 nM	** (<90% and >50%)									CCN(C)S(=O)(=O)Nc1ccc(F)c(Oc2ccc3ncc(CCC4CCN(C5CCC(c6cc7c(cc6F)c(N6CCC(=O)NC6=O)nn7C)CC5)CC4)nc3c2)c1C#N (single isomer, unassigned) [Compound 129, 7-[2-cyano-3-[[ethyl(methyl)sulfamoyl]amino]-6-fluoro-phenoxy]-2-[2-[1-[4-[3-(2,4-dioxohexahydropyrimidin-1-yl)-5-fluoro-1-methyl-indazol-6-yl]cyclohexyl]-4-piperidyl]ethyl]quinoxaline]		** (<90% and >50%)
< 1000 nM	> 10000 nM	50 to 90%	> 10000 nM										CCN(C)S(=O)(=O)Nc1ccc(F)c(Oc2ccc3ncc(CCC4CCN(C5CCC(c6ccc(NC7CCC(=O)NC7=O)cc6F)CC5)CC4)nc3c2)c1C#N (single isomer, unassigned) [Compound 131, 7-[2-cyano-3-[[ethyl(methyl)sulfamoyl]amino]-6-fluoro-phenoxy]-2-[2-[1-[4-[4-[(2,6-dioxo-3-piperidyl)amino]-2-fluoro-phenyl]cyclohexyl]-4-piperidyl]ethyl]quinoxaline]	50 to 90%	
